Here are results for 6 molecules from patent US20240010654A1, “CRYSTALLINE FORMS OF A TYK2 INHIBITOR” (Ventyx Biosciences, Inc., priority 2022, published 2024).

Where “and” joins values, the source holds several entries; their conditions need not be identical. Identical values can stand only once. Counter-ions that a name gives are not always drawn. Like-named read-outs stand apart in the source and are kept apart here.

Data set [1] in a line: Pharmacokinetics following oral administration in male cynomolgus monkeys. Format: in vivo. To be noted: for AUC/Dose: in ng·h/mL per mg/kg; for Cmax: read-out: C0/Cmax. On the procedure: The gavage tube was flushed with 5 mL of vehicle after administration of the dose. Plasma samples were collected at the following time points: 15 min, 30 min, 1 hr, 2 hr, 4 hr, 6 hr, 8 hr and 24 hr postdose. The concentrations of Compound 1 were determined in plasma.

Data set [2] is described as follows: Dynamic Vapor Sorption (DVS). Format: physicochemical. To be noted: for hygroscopicity of the material (DVS): 25° C.; for Post-DVS analysis by XRPD: after DVS cycle at 25° C. On the procedure:
DVS data was collected on a Vsorp Dynamic Moisture Sorption Analyzer (ProUmid GmbH & Co. KG, Germany). The sample was placed into a tared sample chamber and automatically weighed. • Sample temperature: 25° C. • Cycle: Full cycle • Adsorption: 0, 10, 20, 30, 40, 50, 60, 70, 80, 90 • Desorption: 80, 70, 60, 50, 40, 30, 20, 10, 0 • Characterize the sample after the DVS experiment by XRPD
Alternatively, DVS analysis was carried out using a Surface Measurement System DVS Intrinsic analyzer. The instrument was calibrated with standard weights. Approximately 15-20 mg of sample was loaded into a pan for analysis. The sample was analyzed at 25° C. in 10% relative humidity (RH) steps from 50% to 95% RH (adsorption cycle), from 95% to 0% RH (desorption cycle), and from 0% to 50% RH (adsorption cycle). The movement from one step to the next occurred either after satisfying the equilibrium criterion of 0.002% weight change (dm/dt) or, if the equilibrium criterion was not met, after ten hours. Samples after the DVS test were tested by XRPD.

Data set [3] can be described thus: Competitive slurry experiments of Compound 1 adipate, Forms 1, 2 and 3. Format: physicochemical. As to conditions: from the competitive slurry experiments. As to the method: The resulting solid was collected by filtration and analyzed by XRPD.
A mixed sample of Compound 1 adipate, […] and Compound 1 adipate, Form 2 was suspended in solvents (40 mg, 0.5 mL) and stirred at 50° C. for 1 h. The resulting solid was collected by filtration and analyzed by XRPD.

A short description of data set [4]: Stability test of Compound 1 adipate, Form 1 (HPLC purity and XRPD after storage). It is filed as physicochemical. As to conditions: for XRPD (crystal form at day 7): after 7 days storage. As to the method: Samples were prepared in duplicate for each condition. At day 7, the samples were analyzed by HPLC and XRPD to check the purity and the crystal form, respectively.

Where [5] appears, read: male, cynomolgus monkey, plasma, po, 50 mg/kg, PO BID, 50 mg/kg BID.

Broadly, the AUC(0-t) is the area under the concentration-time curve up to a stated or last time point. As a reminder, the bioavailability is the share of a dose that reaches the circulation, judged against a reference dose that is usually intravenous. The Tmax is the time at which the peak concentration occurs. On to `CNc1cc(Nc2cc(F)cc3c2OCCO3)nc2c(NC(=O)N[C@@H]3C[C@@H]3F)cnn12` [Compound 1 oxalate, Form 1, 1-(5-((7-fluoro-2,3-dihydrobenzo[b][1,4]dioxin-5-yl)amino)-7-(methylamino)pyrazolo[1,5-a]pyrimidin-3-yl)-3-((1R,2S)-2-fluorocyclopropyl)urea], for which, in data set [1] (PO, 5 mg/kg, Form 1, 5 mg/kg), the C0/Cmax is given as 103 ng/mL and the AUC/Dose worked out at 302. The AUC(0-t) in data set [1] (male, cynomolgus monkey, plasma, po, 5 mg/kg) amounted to 1510 ng·h/mL. In data set [1] (male, cynomolgus monkey, plasma, po, 5 mg/kg, PO, 5 mg/kg, read-out: % F (oral bioavailability)), the bioavailability worked out at 21.6%. Also, in data set [1] (male, cynomolgus monkey, plasma, po, 5 mg/kg, PO, 5 mg/kg, read-out: Tmax), the Tmax was 4.67 h. For the same molecule, in data set [2], the “hygroscopicity of the material (DVS)” value is “slightly hygroscopic” and the “Post-DVS analysis by XRPD” value is listed as “no change”. Also, in data set [2] (80% RH and 25° C.), the “water uptake (DVS)” value amounted to 0.37%.

In general, half-life refers to the time in which the quantity being followed falls by half. The low end stands for rapid decline, the high end for slow decline. As to `CNc1cc(Nc2cc(F)cc3c2OCCO3)nc2c(NC(=O)N[C@@H]3C[C@@H]3F)cnn12` [Compound 1 adipate, Form 1, 1-(5-((7-fluoro-2,3-dihydrobenzo[b][1,4]dioxin-5-yl)amino)-7-(methylamino)pyrazolo[1,5-a]pyrimidin-3-yl)-3-((1R,2S)-2-fluorocyclopropyl)urea adipate], the “% F (oral bioavailability)” value in data set [1] (PO, 5 mg/kg, Form 1, 5 mg/kg) came to 33.6%. In data set [1] (PO, 5 mg/kg, Form 1, 5 mg/kg), this molecule showed an AUClast of 2347 ng·h/mL. Further, in data set [1] (PO, 5 mg/kg, Form 1, 5 mg/kg), the C0/Cmax is on record as 672 ng/mL. Further, the Tmax was 2.67 h in data set [1] (PO, 5 mg/kg, Form 1, 5 mg/kg) and 4.67 h in data set [1] (male, cynomolgus monkey, plasma, po, 100 mg/kg, PO, 100 mg/kg, read-out: Tmax). The AUC/Dose worked out at 469 in data set [1] (PO, 5 mg/kg, Form 1, 5 mg/kg) and 1083 in data set [1] (PO, 100 mg/kg). This molecule showed a half-life in data set [1] (cynomolgus monkey, plasma, PO, 5 mg/kg) of 2.66 h. The same molecule showed an exposure AUC(0-t) in data set [1] (male, cynomolgus monkey, plasma, po, 100 mg/kg) of 108000 ng·h/mL. For the same molecule, in data set [1] (male, cynomolgus monkey, plasma, po, 100 mg/kg, PO, 100 mg/kg), the Cmax was found to be 9770 ng/mL. Further, in data set [1] (oral gavage, Table 9), the “PK compared to Compound 1 free base, Form A” value is “faster Tmax and higher AUC”. Besides, the “PK compared to Compound 1 oxalate, Form 1” value in data set [1] (oral gavage, Table 10) is “faster Tmax, higher AUC, and higher oral bioavailability (% F)”. Besides, in data set [3], the “relative stability among the three Compound 1 adipate forms” value is recorded as “most stable form”. For the same molecule, the HPLC purity was 99.75 and 99.86 in data set [4] (40° C./75% RH (open) @ 7 d, duplicate, batch from DMSO/EtOAc/EtOH); 99.64 and 99.65 in data set [4] (40° C./75% RH (open) @ 7 d, duplicate, batch from DMSO/EtOH/Water); 99.43 and 99.44 in data set [4] (40° C./75% RH (open) @ 7 d, duplicate, batch from acetone/water (19/1)); 99.85 and 99.82 in data set [4] (60° C./capped @ 7 d, duplicate, batch from DMSO/EtOAc/EtOH); 99.65/99.65 in data set [4] (60° C./capped @ 7 d, duplicate, batch from DMSO/EtOH/Water); 99.44/99.44 in data set [4] (60° C./capped @ 7 d, duplicate, batch from acetone/water (19/1)). Further, the HPLC purity in data set [4] (Day 0, batch from DMSO/EtOAc/EtOH (Example 13Ac)) is listed as 99.86; in data set [4] (Day 0, batch from DMSO/EtOH/Water (Example 13Ad)), 99.66; in data set [4] (Day 0, batch from acetone/water (19/1) (Example 13Ab)) it was 99.49. For the same molecule, the “physical and chemical stability” value in data set [4] (60° C. (capped) and 40° C./75% RH (open) for 1 week) was “both physically and chemically stable”. For the same molecule, the “XRPD (crystal form at day 7)” value in data set [4] (batch from DMSO/EtOAc/EtOH) is on record as “Adipate, Form 1”; in data set [4] (batch from DMSO/EtOH/Water), “Adipate, Form 1”; in data set [4] (batch from acetone/water (19/1)), “Adipate, Form 1”. Besides, the “hygroscopicity of the material (DVS)” value in data set [2] is “non-hygroscopic”. In addition, in data set [2] (80% RH and 25° C.), the “water uptake (DVS)” value is on record as “less than 0.2%”. In addition, in data set [2], the “Post-DVS analysis by XRPD” value is recorded as “no change”.

Turning to `CNc1cc(Nc2cc(F)cc3c2OCCO3)nc2c(NC(=O)N[C@@H]3C[C@@H]3F)cnn12` [Compound 1 phosphate, Form 1, 1-(5-((7-fluoro-2,3-dihydrobenzo[b][1,4]dioxin-5-yl)amino)-7-(methylamino)pyrazolo[1,5-a]pyrimidin-3-yl)-3-((1R,2S)-2-fluorocyclopropyl)urea], in data set [2], the “hygroscopicity of the material (DVS)” value was “slightly hygroscopic” and the “Post-DVS analysis by XRPD” value is “no change”. In data set [2] (80% RH and 25° C.), the “water uptake (DVS)” value was determined as 1.20%.

For `CNc1cc(Nc2cc(F)cc3c2OCCO3)nc2c(NC(=O)N[C@@H]3C[C@@H]3F)cnn12` [Compound 1, Form A, 1-(5-((7-fluoro-2,3-dihydrobenzo[b][1,4]dioxin-5-yl)amino)-7-(methylamino)pyrazolo[1,5-a]pyrimidin-3-yl)-3-((1R,2S)-2-fluorocyclopropyl)urea], in data set [1] (PO BID, 50 mg/kg BID), the AUC/Dose is 761. In data set [1] (setting [5]), the AUC(0-t) was found to be 76100 ng·h/mL and the Cmax was determined as 5630 ng/mL. For the same molecule, the Tmax in data set [1] (male, cynomolgus monkey, plasma, po, 50 mg/kg, PO BID, 50 mg/kg BID, after second dose, read-out: Tmax) was found to be 7 h. Moreover, the “water uptake (DVS)” value in data set [2] (95% RH and 25° C.) was 5.08%. For the same molecule, the “Post-DVS analysis by XRPD” value in data set [2] is recorded as “no change”.

For `CNc1cc(Nc2cc(F)cc3c2OCCO3)nc2c(NC(=O)N[C@@H]3C[C@@H]3F)cnn12` [Compound 1, Form B, 1-(5-((7-fluoro-2,3-dihydrobenzo[b][1,4]dioxin-5-yl)amino)-7-(methylamino)pyrazolo[1,5-a]pyrimidin-3-yl)-3-((1R,2S)-2-fluorocyclopropyl)urea], the “water uptake (DVS)” value in data set [2] (95% RH and 25° C.) is on record as 0.68%. Further, the “Post-DVS analysis by XRPD” value in data set [2] is “no change”.

Turning to `CNc1cc(Nc2cc(F)cc3c2OCCO3)nc2c(NC(=O)N[C@@H]3C[C@@H]3F)cnn12` [Compound 1 mesylate, Form 1, 1-(5-((7-fluoro-2,3-dihydrobenzo[b][1,4]dioxin-5-yl)amino)-7-(methylamino)pyrazolo[1,5-a]pyrimidin-3-yl)-3-((1R,2S)-2-fluorocyclopropyl)urea], in data set [2] (95% RH and 25° C.), the “water uptake (DVS)” value stood at 2.65%. Moreover, the “Post-DVS analysis by XRPD” value in data set [2] was “no change”.
